We go through 30 compounds from patent US7629376B2, “3-substituted-5- and 6-aminoalkyl indole-2-carboxylic acid amides and related analogs as inhibitors of casein kinase I” (Aventis Pharmaceuticals Inc., priority 2004, dated 2009).

In experiment [1] the test system is Mper1-luc Rat-1 fibroblasts (P2C4). Nature of the experiment: Cellular Circadian Assay (Mper1-luc reporter period lengthening). The format is cell-based. The settings on record: effective micromolar concentration that induces a 1 hour lengthening of period. The method, then: Cellular Circadian Assay Experimental Procedures
Stable transfection: Co-transfect Rat-1 fibroblast cultures at 30-50% confluence with vectors containing the Zeocin resistance selectable marker for stable transfection and an mPer1 promoter-driven luciferase reporter gene. After 24-48 hours, split the cultures onto 96 well plates and maintain in growth media supplemented with 50-100 μg/mL Zeocin (Invitrogen #45-0430) for 10-14 days. Assess Zeocin-resistant stable transfectants for reporter expression by supplementing growth media with 100 μM luciferin (Promega #E1603) and assaying luciferase activity on a TopCount scintillation counter (Packard Model #C384V00). […] Select Mper1-luc Rat-1 fibroblasts clone P2C4 for compound testing.
After synchronization, rinse cultures with 100 μL EMEM (Cellgro #10-010-CV) for 10 minutes at room temperature. […] Add compounds to be tested for circadian effects to CO2-independent media in 0.3% DMSO (final concentration).
Estimate in vivo luciferase activity by measuring relative light output on a TopCount scintillation counter (Packard Model #C384V00). Transfer plates from incubator to reader using an ORCA robotic arm (Beckman Instruments) and SAMI-NT automated scheduling software (Version 3.3; SAGIAN/Beckman Instruments).
Data Analysis Use Microsoft Excel and XLfit (Version 2.0.9; IDBS) to import, manipulate and graph data. Perform period analysis either by determining the interval between relative light output minima over several days or by Fourier Transform. […] Analyze the data by fitting a hyperbolic curve to the data expressed as period change (y-axis) versus the concentration of test compound (x-axis) in XLfit and interpolate the EC ? t+1h from this curve.

Another experiment deals with T1, casein kinase 1ε (Homo sapiens, UniProt P49674).
T1 construct: made in house
T1 sequence (P49674 whole entry): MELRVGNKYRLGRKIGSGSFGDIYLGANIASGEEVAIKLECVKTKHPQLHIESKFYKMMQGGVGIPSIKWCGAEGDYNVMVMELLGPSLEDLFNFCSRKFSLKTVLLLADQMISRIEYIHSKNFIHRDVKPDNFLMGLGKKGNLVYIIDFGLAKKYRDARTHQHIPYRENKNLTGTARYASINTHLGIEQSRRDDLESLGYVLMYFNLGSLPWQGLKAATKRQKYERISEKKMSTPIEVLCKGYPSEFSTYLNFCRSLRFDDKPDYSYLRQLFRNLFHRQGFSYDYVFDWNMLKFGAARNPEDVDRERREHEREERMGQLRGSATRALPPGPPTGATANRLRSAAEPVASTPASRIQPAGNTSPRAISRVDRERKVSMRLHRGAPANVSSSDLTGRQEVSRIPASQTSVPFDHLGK
Nature of the experiment: Casein Kinase Epsilon 33P-ATP Filter Plate Assay for Screening CK1ε Inhibitors. In kind it is biochemical.

Experimental for casein kinase 1ε: Casein Kinase Epsilon ^33P-ATP Filter Plate Assay for Screening CK1ε Inhibitors
Purpose: This assay measures the ability of compounds to inhibit the phosphorylation of the substrate casein by the enzyme casein kinase 1ε using an in vitro ^33P-ATP filtration assay.
The above are stored as 100 μL aliquots at minus 80° C. • Compounds: • Supply compounds for testing as frozen 10 mM compound stock dissolved in 100% DMSO. Assay Conditions: • Final total assay volume per well is equal to 50 μL that one prepares as follows: • 5 μL of diluted compound stock (10, 1, 0.1, 0.01 or 0.001 μM), • 5 μL of dephosphorylated casein final concentration 0.2 μg/μL, • 20 μL of CK1ε final concentration 3 ng/μL, and • 20 μL of γ-^33P-ATP final concentration 0.02 μCi/μL mixed with cold ATP (10 μM final). Methodology: • 1. Prepare 500 mL of fresh assay buffer: 50 mM Tris pH 7.5, 10 nm MgCl2, 2 mM DTT and 1 mM EGTA • 2. Obtain compounds to be evaluated as 10 μL of 10 mM stock dissolved in 100% DMSO. Use a Biomek 2000 liquid handling robot, make serial dilutions to yield 10, 1, 0.1, 0.01 and 0.001 μM final compound dilutions added as 5 μL additions to Falcon U bottom plates. […] A routine screening assay will consist of 32 compounds, which equals 4 assay plates. • 3.
• 4. Add 5 μL of compound as indicated, then add 5 μL of dephosphorylated casein (dissolved in distilled H20) (0.2 μg/μL) and 20 μL CK1ε (3 ng/μL) to the appropriate wells. • 5. Finally add 20 μL γ-^33P-ATP (0.02 μCi/μL)/10 μM cold ATP (equals approximately 2×10^6 CPM per well). • 6. Vortes the Falcon U-Bottom assay plate containing the above 50 μL reaction volume and then incubate at room temperature for 2 hours. • 7. At the end of 2 hours, stop the reaction by the addition of 65 μL of ice cold 2 mM cold ATP (made up in assay buffer) to the assay plates using a Beckman Multimek. • 8. At the same time add 25 μL 100% ice cold TCA made up in distilled H20 to a matching number of Millipore MAPH filter plates. • 9. Using a handheld 8-channel pipettor, transfer 100 μL of the reaction mixture from the Falcon U-Bottom Plate to the Millipore MAPH filter plates presoaked with TCA. • 10. Mix the Millipore MAPH filter plates gently and allow to sit at room temperature for at least 30 minutes to precipitate the proteins. • 11. After 30 minutes, place the filter plates on a Millipore vacuum manifold and filter at no more than 8 mm Hg as the MAPH filters tend to “air lock” at higher vacuum settings. • 12. […] Allow the plates to dry overnight at room temperature. The next day add 40 μL Packard Microscint-20 Scintillation Fluid per well using a Titertek Multidrop dispenser; seal the plates and count for 2 minutes/well in a Packard Topcount NXT Scintillation Counter (to provide CPM values/well). Calculation: • 1. Import Counts Per Minute (CPM) data into a proprietary data calculation and archiving database (Activity Base by IDBS version 5.0). • 2. Column 1 for each plate reflects total phosphorylation activity of the enzyme in the absence of any inhibiting compound and thus represents 100%. Column 12 reflects any nonspecific phosphorylation/retained radioactivity activity in the absence of inhibiting compound and enzyme. Typically one observes approximately 1% of Total CPMs that are “nonspecific”. • 3.

For the compound “3-(3-Chlorophenylsulfanyl)-5-methylaminomethyl-1H-indole-2-carboxylic acid amide”, the “Cell Assay ECΔτ1h” value in experiment [1] was 5.67 µM.
Still for that read-out and setting: the result for “3-(3-Fluorophenylsulfanyl)-5-methylaminomethyl-1H-indole-2-carboxylic acid amide [Ie]” reads 3.34 µM.
`COc1ccc(CNCc2ccc3c(Sc4ccccc4)c(C(N)=O)[nH]c3c2)c(OC)c1` [IIw, 6-[(2,4-Dimethoxybenzylamino)methyl]-3-phenylsulfanyl-1H-indole-2-carboxylic acid amide]: affinity on casein kinase 1ε was put at a Ki of 290 nM.
On to `NC(=O)c1[nH]c2cc(CNCc3cccc(Oc4ccccc4)c3)ccc2c1Sc1ccccc1` [IIx, 6-[(3-Phenoxybenzylamino)methyl]-3-phenylsulfanyl-1H-indole-2-carboxylic acid amide], for which the affinity on casein kinase 1ε corresponds to a Ki of 1190 nM.
Same read-out and setting: under `COc1cccc(CNCc2ccc3c(Sc4ccccc4)c(C(N)=O)[nH]c3c2)c1` [IIy, 6-[(3-Methoxybenzylamino)methyl]-3-phenylsulfanyl-1H-indole-2-carboxylic acid amide] stands 380 nM; under `Cc1ccccc1CNCc1ccc2c(Sc3ccccc3)c(C(N)=O)[nH]c2c1` [IIz, 6-[(2-Methylbenzylamino)methyl]-3-phenylsulfanyl-1H-indole-2-carboxylic acid amide], 570 nM.
Regarding `NCc1ccc2[nH]c(C(N)=O)c(Sc3ccccc3)c2c1` [Ia, 5-Aminomethyl-3-phenylsulfanyl-1H-indole-2-carboxylic acid amide], affinity at casein kinase 1ε was put at a Ki of 70 nM. Besides, in experiment [1], the “Cell Assay ECΔτ1h” value was determined as 0.44 µM.
Consider `NC(=O)c1[nH]c2ccc(CN3CCN(c4ccc(F)cc4)CC3)cc2c1Sc1ccccc1` [Iaa, 5-[4-(4-Fluorophenyl)piperazin-1-ylmethyl]-3-phenylsulfanyl-1H-indole-2-carboxylic acid amide], for which the Ki (usually the dissociation constant of the complex between target and ligand, obtained from inhibition or displacement) on casein kinase 1ε was over 10000 nM.
As to `COc1cc(C#N)c(NCc2ccc3[nH]c(C(N)=O)c(Sc4ccccc4)c3c2)cc1OC` [Iab, 5-[(2-Cyano-4,5-dimethoxyphenylamino)methyl]-3-phenylsulfanyl-1H-indole-2-carboxylic acid amide], the Ki at casein kinase 1ε was over 10000 nM.
On the same count and under the same terms, the result for `NC(=O)c1[nH]c2ccc(CNc3cccc(C(F)(F)F)c3)cc2c1Sc1ccccc1` [Iac, 3-Phenylsulfanyl-5-[(3-trifluoromethyl-phenylamino)methyl]-1H-indole-2-carboxylic acid amide] reads about 10000 nM; that for `CCNCc1ccc2[nH]c(C(N)=O)c(Sc3ccccc3)c2c1` [Iad, 5-Ethylaminomethyl-3-phenylsulfanyl-1H-indole-2-carboxylic acid amide], 90 nM.
Still for that read-out and setting: under `CCCNCc1ccc2[nH]c(C(N)=O)c(Sc3ccccc3)c2c1` [Iae, 3-Phenylsulfanyl-5-propylaminomethyl-1H-indole-2-carboxylic acid amide] stands 580 nM; under `CC(NCc1ccc2[nH]c(C(N)=O)c(Sc3ccccc3)c2c1)C(N)=O` (stereo not drawn) [Iaf, 5-[(1-Carbamoylethylamino)methyl]-3-phenylsulfanyl-1H-indole-2-carboxylic acid amide], 390 nM.
Same read-out and setting: the result for `COc1cccc(NCc2ccc3[nH]c(C(N)=O)c(Sc4ccccc4)c3c2)c1` [Iag, 5-[(3-Methoxyphenylamino)methyl]-3-phenylsulfanyl-1H-indole-2-carboxylic acid amide] reads 2230 nM; that for `CCCCc1ccc(NCc2ccc3[nH]c(C(N)=O)c(Sc4ccccc4)c3c2)cc1` [Iah, 5-[(4-Butylphenylamino)methyl]-3-phenylsulfanyl-1H-indole-2-carboxylic acid amide], 4280 nM.
Regarding `NC(=O)c1[nH]c2ccc(CNc3ccccc3F)cc2c1Sc1ccccc1` [Iai, 5-[(2-Fluorophenylamino)methyl]-3-phenylsulfanyl-1H-indole-2-carboxylic acid amide], at casein kinase 1ε, the affinity, expressed as Ki, was 6850 nM. The “Cell Assay ECΔτ1h” value in experiment [1] turned out to be 6.91 µM.
Regarding `CC(C)NCc1ccc2[nH]c(C(N)=O)c(Sc3ccccc3)c2c1` [Iaj, 5-(Isopropylaminomethyl)-3-phenylsulfanyl-1H-indole-2-carboxylic acid amide], the Ki at casein kinase 1ε worked out at 540 nM.
The same measure, in the same setting: under `NC(=O)c1[nH]c2ccc(CNCc3ccccc3)cc2c1Sc1ccccc1` [If, 5-(Benzylaminomethyl)-3-phenylsulfanyl-1H-indole-2-carboxylic acid amide] stands 710 nM; under `CNCc1ccc2c(c1)c(Sc1ccccc1)c(C(N)=O)n2C` [Ig, 1-Methyl-5-methylaminomethyl-3-phenylsulfanyl-1H-indole-2-carboxylic acid amide], 4450 nM; under `NC(=O)c1[nH]c2ccc(CN3CCC(CO)CC3)cc2c1Sc1ccccc1` [Ih, 5-(4-Hydroxymethylpiperidin-1-ylmethyl)-3-phenylsulfanyl-1H-indole-2-carboxylic acid amide], 1740 nM.
`NC(=O)c1[nH]c2ccc(CN3CCOCC3)cc2c1Sc1ccccc1` [Ii, 5-Morpholin-4-ylmethyl-3-phenylsulfanyl-1H-indole-2-carboxylic acid amide] showed a Ki at casein kinase 1ε of 240 nM.
On the same count and under the same terms, under `CCCNCc1ccc2[nH]c(C(N)=O)c(Sc3ccccc3)c2c1` [Ij, 3-Phenylsulfanyl-5-propylaminomethyl-1H-indole-2-carboxylic acid amide] stands 200 nM; under `CCCCNCc1ccc2[nH]c(C(N)=O)c(Sc3ccccc3)c2c1` [Ik, 5-Butylaminomethyl-3-phenylsulfanyl-1H-indole-2-carboxylic acid amide], 93 nM; under `NC(=O)c1[nH]c2ccc(CN3CCCCC3)cc2c1Sc1ccccc1` [Il, 3-Phenylsulfanyl-5-piperidin-1ylmethyl-1H-indole-2-carboxylic acid amide], 880 nM.
`CCCCCNCc1ccc2[nH]c(C(N)=O)c(Sc3ccccc3)c2c1` [Im, 5-Pentylaminomethyl-3-phenylsulfanyl-1H-indole-2-carboxylic acid amide]: at casein kinase 1ε, the Ki stood at 64 nM. The “Cell Assay ECΔτ1h” value in experiment [1] is 4.55 µM.
For `NC(=O)c1[nH]c2ccc(CN3CCCC(C(N)=O)C3)cc2c1Sc1ccccc1` (stereo not drawn) [Io, 5-(3-Carbamoylpiperidin-1-ylmethyl)-3-phenylsulfanyl-1H-indole-2-carboxylic acid amide], at casein kinase 1ε, the Ki is about 10000 nM.
Same read-out and setting: under `NC(=O)c1[nH]c2ccc(CNc3ccc4ncccc4c3)cc2c1Sc1ccccc1` [Iu, 3-Phenylsulfanyl-5-(quinolin-6-ylaminomethyl)-1H-indole-2-carboxylic acid amide] stands 600 nM; under `CC(CO)(CO)NCc1ccc2[nH]c(C(N)=O)c(Sc3ccccc3)c2c1` [Iv, 5-[(2-Hydroxy-1-hydroxymethyl-1-methyl-ethylamino)methyl]-3-phenylsulfanyl-1H-indole-2-carboxylic acid amide], 360 nM.
On the same count and under the same terms, the result for `NC(=O)c1[nH]c2ccc(CN3CCCC3CO)cc2c1Sc1ccccc1` (stereo not drawn) [Iw, 5-(2-Hydroxymethyl-pyrrolidin-1-ylmethyl)-3-phenylsulfanyl-1H-indole-2-carboxylic acid amide] reads 65 nM; that for `NC(=O)c1[nH]c2ccc(CN3CCC4(CC3)OCCO4)cc2c1Sc1ccccc1` [Iz, 5-(1,4-Dioxa-8-aza-spiro[4,5]dec-8-ylmethyl)-3-phenylsulfanyl-1H-indole-2-carboxylic acid amide], 320 nM.
